In ChEMBL document CHEMBL4602681, “Quintaquinone, a Merosesquiterpene from the Yellow Sponge Verongula cf. rigida Esper” (J Nat Prod, 2020) one finds inhibition and IC50 data, which are given here for 10 molecules.

For one test, the system named is LNCaP. Briefly: Inhibition of steroid 5-alpha-reductase in human LNCAP cells assessed as reduction in 5- dihydrotestosterone formation at 100 uM incubated for 60 mins by LC-MS analysis relative to control. It is filed as cell-based.
The subject of another test is PC-3. Briefly: Antiproliferative activity against human PC3 cells assessed as reduction in cell viability by MTT assay. It is filed as functional, cell-based. A general note: Formazan colour is commonly taken as a measure of viable cells.
The subject of a further test is HeLa. In words: Antiproliferative activity against human HeLa cells assessed as reduction in cell viability after 72 hrs by sulforhodamine B assay. It is filed as functional, cell-based. (In general: Sulforhodamine B stains cellular protein and so reports cell mass.)
The subject of the next test is MCF7. In words: Antiproliferative activity against human MCF7 cells assessed as reduction in cell viability after 72 hrs by sulforhodamine B assay. Type of test: functional, cell-based. Particulars: MCF7, 72 h.
Test [1] is described as follows: Inhibition of steroid 5-alpha-reductase in human LNCAP cells assessed as reduction in 5- dihydrotestosterone formation incubated for 60 mins by LC-MS analysis. Type of test: cell-based. The note with it: 1 h.

A value given as a limit tells only on which side of the number the result lay.

The term inhibition denotes the change of the read-out against control, counted positive when it falls. As usually defined, the IC50 is the concentration that inhibits the measured activity by half. Regarding `COC1=CC(=O)C(O)=C(C/C=C(\C)CC/C=C(\C)CCC=C(C)C)C1=O`, in the test with LNCaP, the inhibition is under 50%. Moreover, the IC50 with PC-3, in the test on HeLa and with MCF7 was over 10 µM in each case.

In the case of `COC1=CC(=O)C2=C(C[C@H]3[C@]4(C)CCCC(C)(C)[C@H]4CC[C@@]3(C)O2)C1=O`, the IC50 was 0.73 µM in test [1], over 10 µM with PC-3, over 10 µM in the test with HeLa and over 10 µM in the test with MCF7.

`C=C1CCC[C@H]2[C@](C)(CC3=C(O)C(=O)C=C(OC)C3=O)[C@@H](C)CC[C@]12C` [ILIMAQUINONE]: the inhibition with LNCaP is under 50%. Further, the IC50 in the test on PC-3, in the test with HeLa and with MCF7 was over 10 µM throughout.

Turning to `C=C1CCC[C@H]2[C@](C)(CC3=C(O)C(=O)C=C(NCC(C)C)C3=O)[C@@H](C)CC[C@]12C`, the inhibition in the test with LNCaP was under 50%. The IC50 in the test with PC-3, in the test with HeLa and in the test with MCF7 was over 10 µM throughout.

For the molecule `C=C1CCC[C@H]2[C@](C)(CC3=C(O)C(=O)C=C(OC)C3=O)[C@@H](C)CC[C@@]12C`, in the test with LNCaP, the inhibition is under 50%. Further, the IC50 with PC-3, in the test with HeLa and in the test with MCF7 was over 10 µM each time.

Regarding `COC(=O)c1cc(C[C@H]2C(C)=CC[C@H]3C(C)(C)CCC[C@]23C)c(O)c(O)c1O`, the inhibition in the test on LNCaP was under 50%. Also, the IC50 with PC-3, in the test on HeLa and in the test on MCF7 was over 10 µM each time.

Regarding `COC(=O)c1cc(O)c(O)c(C[C@H]2C(C)=CC[C@H]3C(C)(C)CCC[C@]23C)c1`, the inhibition with LNCaP was under 50%. The IC50 in the test on PC-3, in the test with HeLa and in the test on MCF7 was over 10 µM in each case.

Regarding `C=C1CCC[C@H]2[C@](C)(CC3=C(O)C(=O)C(CCCCC(C)=O)=C(OC)C3=O)[C@@H](C)CC[C@]12C`, the inhibition in the test with LNCaP was under 50%. The IC50 with PC-3, in the test with HeLa and with MCF7 was over 10 µM throughout.

`CC(C)(C)NC(=O)[C@H]1CC[C@H]2[C@@H]3CC[C@H]4NC(=O)C=C[C@]4(C)[C@H]3CC[C@]12C` [FINASTERIDE]: the IC50 in test [1] turned out to be 0.76 µM.

With `C=C1CCC[C@H]2[C@](C)(CC3=C(O)C(=O)C=C(NCCc4ccccc4)C3=O)[C@@H](C)CC[C@]12C`, the inhibition in the test on LNCaP was under 50%. In addition, the IC50 in the test with PC-3, in the test on HeLa and in the test with MCF7 was over 10 µM throughout.
